Test results published in PubChem BioAssay AID1259321 (Sanford-Burnham Center for Chemical Genomics, 2017).
Calls of active or inactive are those of the source.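 Rule for the calls: active = half-maximal concentration for changing protein binding to DNA, from the fitted dose curve, below 10 micromolar; inactive = the rest.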

target: Nuclear receptor subfamily 1 group D member 1 (Homo sapiens) (UniProt P20393); assay: Rev-erbα–DNA interaction modulators – biochemical, FITC-DNA, fluorescence polarization, dose response (AID 1259321); details: Rev-erb alpha-FITC-DNA binding
Sequence (P20393 whole entry, looked up): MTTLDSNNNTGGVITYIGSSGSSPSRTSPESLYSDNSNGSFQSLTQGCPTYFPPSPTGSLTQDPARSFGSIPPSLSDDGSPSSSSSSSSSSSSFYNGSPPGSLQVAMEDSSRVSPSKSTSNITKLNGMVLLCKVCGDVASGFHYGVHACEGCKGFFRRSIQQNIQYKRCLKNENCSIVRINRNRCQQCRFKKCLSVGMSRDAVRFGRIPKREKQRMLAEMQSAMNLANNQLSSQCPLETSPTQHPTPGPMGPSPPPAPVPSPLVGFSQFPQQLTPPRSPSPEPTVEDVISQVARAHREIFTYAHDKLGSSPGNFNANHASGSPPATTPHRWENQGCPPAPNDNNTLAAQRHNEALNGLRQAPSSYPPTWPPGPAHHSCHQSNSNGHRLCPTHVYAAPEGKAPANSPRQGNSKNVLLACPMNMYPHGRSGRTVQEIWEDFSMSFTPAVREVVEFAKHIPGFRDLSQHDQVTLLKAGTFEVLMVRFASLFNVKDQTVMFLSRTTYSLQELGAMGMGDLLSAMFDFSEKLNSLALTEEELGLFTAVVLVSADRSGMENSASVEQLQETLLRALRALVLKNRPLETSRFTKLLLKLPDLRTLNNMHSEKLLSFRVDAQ

IC50, active:
CN(C)c1ccc2nc3c(=O)[nH]c(=O)nc-3n(CC(O)C(O)C(O)CO)c2c1 (stereo not given) 0.801 µM
CCN(CC)C(=O)CSc1nc(C)cc(-c2cccs2)c1C#N 5.91 µM
CCN(CC)c1ccc(/C=C/c2cccc[n+]2C)c(OC)c1 7.32 µM
CCN(CC)c1ccc(/C=C(/C#N)c2nc3ccccc3[nH]2)c(OC(C)C)c1 3.45 µM
COC(=O)Cn1c(=NC(=O)CCS(=O)(=O)c2ccccc2)sc2c(OC)ccc(OC)c21 3.16 µM
COc1cc(OC)cc(-n2c3nc4ccccc4nc3c3c(=O)n(CC4CCCO4)cnc32)c1 (stereo not given) 4.12 µM
COc1ccc2c(Cl)c(-c3nnc(SCC(=O)c4ccccc4)n3C)sc2c1 3.42 µM
Fc1ccc2nc(Nc3nc4c(F)cc(F)cc4s3)sc2c1 7.05 µM
Nc1ccc(-c2c3ccc(=O)cc-3oc3cc(O)ccc23)cc1C(=O)O 5.38 µM
COc1cccc(CNC(=O)CCCn2c(=S)[nH]c3cc4c(cc3c2=O)OCO4)c1 0.616 µM
COc1ccc(NC(=O)c2ccc(C(=O)c3cc(OC)ccc3OC)cc2)cc1 1.67 µM
CCc1cc2cc(C(=O)Nc3ccc(F)cc3)sc2s1 7.03 µM
COc1ccc2nc(SCC(=O)NC3CCCC3)c(C)cc2c1 4.48 µM
C/C(=N\NC(=O)COc1cccc(C)c1)c1ccc2ccccc2c1O 7.63 µM
Cn1c(=O)c(Nc2ccc(O)cc2)c2c3c(cccc31)C(=O)c1ccccc1-2 6.77 µM
CCc1nc(SCC(=O)NCCc2ccccc2)c2oc3ccccc3c2n1 1.57 µM
CCC(=O)c1cn(CC(=O)Nc2ccc(C)cc2C)c2ccccc12 1.36 µM
CCn1cc(C2N3CC4(C)CN2CC(C)(C3)C4=O)c2ccccc21 (stereo not given) 2.83 µM
CCOc1ccc2cc(C#N)c(SCC(=O)OC)nc2c1 3.74 µM
CCOC(=O)c1nnn2c1nc(Nc1cccc(C(F)(F)F)c1)c1ccccc12 1.86 µM
CN1C(=O)c2cc(NC(=O)Nc3ccccc3F)ccc2OC[C@H]2O[C@@H](CC(=O)NCc3ccc(-c4ccccc4)cc3)CC[C@@H]21 3.55 µM
CCc1ccc2n(-c3ccc(OC)cc3)c([S-])c(C(=O)Nc3cc(C)cc(C)c3)[n+]2c1 2.71 µM
COC(=O)c1cccc(Cn2ccc3ccc(-c4ccc5ccn(C(=O)c6ccccc6C)c5c4)cc32)c1 2.94 µM
CCc1ccc(NC(=O)CSc2nc3ncc(Br)cc3[nH]2)cc1 1.53 µM
CCC(=O)N=c1sc2c(OC)ccc(OC)c2n1C 2.98 µM
CCSc1nnc(NC(=O)c2cc3c(s2)CCCC3)s1 1.58 µM
CCOC(=O)N1CCC(n2c(SCC(=O)c3ccccc3)nc3ccsc3c2=O)CC1 2.26 µM
O=C1c2c(Br)c(Br)c(Br)c(Br)c2C(=O)N1c1ccccn1 8.24 µM
COc1ccccc1-c1ccc2c(c1)C(C)(Cc1cccc(F)c1)C(=O)N2 (stereo not given) 7.15 µM
Cc1ccc(C)c(Nc2nc3c(S(=O)(=O)c4ccccc4)nnn3c3ccccc23)c1 8.48 µM
COC(=O)c1ccc(CSc2ncnc3c2oc2ccccc23)o1 2.73 µM
CC1CCN(Cc2cc(=O)oc3ccc(C(C)C)cc23)CC1 9.88 µM
COc1ccc(C(=O)Nc2nc3ccc4nc(C)sc4c3s2)cc1 9.47 µM
Cc1cccc2cc(C(c3nnnn3Cc3ccccc3)N3CCN(c4ccccc4)CC3)c(=O)[nH]c12 (stereo not given) 7.94 µM
O=C(COc1ncnc2c(Cl)cc(Cl)cc12)NC1CCCCCC1 0.847 µM
CCC(=O)c1cn(CC(=O)Nc2ccccc2Cl)c2ccccc12 3.98 µM
CN(C)/C=N/C1=C(C#N)C(c2cccs2)c2ccc3ccccc3c2O1 (stereo not given) 3.95 µM
Cc1cc(C)c(N=C2SCC(=O)N2Cc2ccco2)c(C)c1 7.22 µM
COc1ccc(-c2ccc3sc4ccccc4c(=O)c3c2)cn1 3.24 µM
COc1ccc(-n2nc(C(=O)NCC(=O)Nc3ccccn3)c3ccccc3c2=O)cc1Cl 1.28 µM
Cn1c(SCC(=O)c2ccc3c(c2)Cc2ccccc2-3)nnc1-c1ccccc1 2.24 µM

IC50, inactive:
Nc1ccc2c3c(cccc13)C(=O)N(c1ccccc1)C2=O
Cc1nonc1NC(=O)CSc1nc2c(C)cccc2cc1C#N > 40 µM
Cc1[nH]nc2nc(SCC(=O)NCCC3=CCCCC3)n(-c3ccc(Br)cc3)c(=N)c12 > 40 µM
CCCCOc1ccc(C(=O)n2ccc3ccc(-c4ccc5ccn(Cc6ccccc6)c5c4)cc32)cc1 > 40 µM
Cc1nn(C)cc1N1C(=O)c2cccc3c(N)ccc(c23)C1=O
Cc1cc2nc3c(=O)n(CCc4ccccc4)c(=O)[nH]c3nc2cc1N > 40 µM
CCN(CC)c1ccc2cc(C=O)c(=O)oc2c1 > 40 µM
COc1ccc(C2C(C#N)=C(C)NC3=C2C(=O)c2ccccc23)cc1 (stereo not given)
CC1(C)Cc2c(sc3c2c(N)nc(=S)n3Cc2ccccc2)CO1
CSc1nnc(N2C(=O)C(O)=C(C(=O)c3ccco3)C2c2cccc(Cl)c2)s1 (stereo not given)
O=C(CSc1nnc(-c2cccs2)n1-c1ccccc1)N1CCCc2ccccc21 > 40 µM
Cc1ccccc1OCC(=O)Nc1ccc2c(c1)C(=O)c1ccccc1C2=O > 40 µM
CCOC(=O)c1sc(NC(=O)c2ccc(S(=O)(=O)N(C)C)cc2)nc1C
O=C(/C=C/c1cccc2ccccc12)NCCC1=CCCCC1 > 40 µM
COc1ccc2cc(OCC(=O)NNC(=O)Nc3ccc(F)cc3)ccc2c1 > 40 µM
COc1cc2cc(C#N)c(SCC(=O)Nc3cc(C)on3)nc2cc1OC
CCn1c(SCC(=O)c2c[nH]c3ccccc23)nnc1-c1cccs1 > 40 µM
CCN(CC)c1ccc(/C=C(\C#N)C(N)=S)cc1
CN1C(=O)c2cc(NC(=O)Nc3ccccc3)ccc2OC[C@H]2O[C@@H](CC(=O)NC3CCC3)CC[C@@H]21
Cc1ccc(-c2nnc(NCc3nc4ccccc4[nH]3)c3ccccc23)cc1S(=O)(=O)N(C)C
CCCCOC(=O)CSc1nc(N)c(C#N)c(-c2ccc(OCC)cc2)c1C#N
COc1ccc(/C=C2\SC(=S)N(CCCC(=O)NC3CCCC3)C2=O)cc1OC > 40 µM
Cc1ccc(-n2c(N)c(C#N)c(-c3ccccc3)c(C#N)c2=O)cc1 > 40 µM
Cc1cc(C(F)(F)F)c2c(N)c(C(=O)Nc3cc(C)on3)sc2n1
Cc1ccc(S(=O)(=O)c2nc(Nc3ccccc3C#N)sc2Cl)cc1
Cc1ccc(-c2nn(C)c(=O)c3ccccc23)cc1S(=O)(=O)N1CCCC1 > 40 µM
CCN(CC)c1ccc2cc(C(=O)NCc3ccc(F)cc3)c(=N)oc2c1
CCOC(=O)/C(C#N)=C/c1cc2ccccc2nc1N1CCCCC1 > 40 µM
N#Cc1c(N)nc2c3c(sc(=N)c2c1N)NC(=O)CC3c1ccccc1 (stereo not given) > 40 µM
COC(=O)c1ccc(Cn2ccc3ccc(-c4ccc5ccn(C(=O)c6cccc(OC)c6)c5c4)cc32)cc1
CCN1C(=O)c2cccc3c(N)ccc(c23)C1=O > 40 µM
Cc1sc2nc(Cc3ccccc3)[nH]c(=O)c2c1-c1ccccc1 > 40 µM
COc1ccc2[nH]c(C(=O)Nc3ccc(F)cc3Br)cc2c1 > 40 µM
CCN(c1cccc(C)c1)S(=O)(=O)c1cc2c3c(c1)CCC(=O)N3CCC2
